In PubChem BioAssay AID602296 (Broad Institute, 2012) one finds AC40 data, which are given here for 95 compounds.

Results filed as inconclusive are left out. Activity calls are given as the source filed them.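 Rule for the calls: active = fitted activation curve crossing 40% at a concentration no higher than the sample's top valid tested dose; inconclusive = flat fitted curve at 30% to 70% activation, or poor curve fit; inactive = signal decrease, flat curve within 30%, or the rest.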 Bounds are passed on as bounds.

This assay concerns NIH3T3-HGL HSF-1 response element luciferase, 48 h. As to the kind of experiment: sustained heat shock response element induction – cell-based, mouse, luciferase, cherry-pick, dose, confirmation (AID 602296).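 Note: test compounds applied by themselves with no MG132 co-treatment.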
Regarding `CC(/C=C/c1cccs1)=C\C(=O)O`, the AC40 was > 26 µM (inactive). Take `CC(C)NCC(O)COCc1ccc(Cl)cc1` (stereo not given): the AC40 is > 26 µM (inactive).

For the compound `Cn1c(CN2CCN(C(=O)c3ccc(F)cc3)CC2)nc2cc([N+](=O)[O-])ccc21`, the AC40 was > 26 µM (inactive).

`O=C1CCCN1CCCN=c1c([N+](=O)[O-])nn(-c2ccc(Cl)cc2)n1O`: the AC40 was > 12 µM (inactive).

As to `NC(=O)c1c(NC(=O)Cc2ccccc2)sc2c1CCN(Cc1ccccc1)C2`, the AC40 is > 26 µM (inactive). Consider `Clc1ccc(SCc2csc(N3CCOCC3)n2)cc1`, for which the AC40 was > 26 µM (inactive). Consider `Clc1ncnc2scc(C3COc4ccccc4O3)c12` (stereo not given), for which the AC40 is 17.7 µM.

On to `CCN(CC)S(=O)(=O)c1ccc(C(=O)NN(C)C2=NS(=O)(=O)c3ccccc32)cc1`, for which the AC40 was > 26 µM (inactive). As to `CCn1nc(C)cc1C(=O)Sc1ccc(Cl)cc1Cl`, the AC40 is 14.5 µM.

In the case of `NC(=O)c1nn(-c2ccccc2)nc1NC(=O)CN1CCCCC1`, the AC40 was > 26 µM (inactive). Take `O=C1CCC(/C=C/c2ccccc2)=NN1`: the AC40 is > 26 µM (inactive).

Turning to `Cc1ccc(C(=O)CNc2ccc(Cl)cc2)cc1`, the AC40 was > 26 µM (inactive). The figure for `Cc1cc(C)cc(Oc2ccccc2/C=C\C(=O)O)c1` is > 26 µM (inactive); for `Cc1ccc(N2Cc3ccccc3OC(C)C2=O)cc1` (stereo not given) it is > 26 µM (inactive); for `O=C(Nc1ccc2c(c1)C(=O)OC2)c1ccc(Cl)cc1` it is 12.2 µM. Take `CCCCc1c(O)nc(SCC(=O)N2CCOCC2)n(-c2ccc(OC)cc2)c1=O`: the AC40 is > 26 µM (inactive).

For `N#C/C(=C\c1ccc(OCc2ccc(Cl)cc2)cc1)C(=O)Nc1cccc(C(=O)O)c1`, the AC40 was 2.68 µM.

`Cc1nc(-c2ccc(Cl)cc2)sc1C(=O)CBr`: the AC40 is 11.5 µM. In the case of `Cc1ccc(-n2c(SCC(=O)Nc3cc(S(=O)(=O)N4CCOCC4)ccc3Cl)nc3ccccc3c2=O)cc1` it was 16 µM; in that of `COc1ccc(/C=C/C(=O)N(C(C)C)C(C)C)cc1Br`, 6.82 µM; in that of `Cc1ccc(/C=C2\Oc3cc(OC(=O)N4CCOCC4)ccc3C2=O)cc1`, > 26 µM (inactive). With `COc1ccc(/C=C(\NC(=O)c2ccccc2)C(=O)N/N=C/c2sccc2C)cc1`, the AC40 was > 26 µM (inactive). Turning to `C[C@H](NC(=O)[C@@H]1CSC2c3ccccc3C(=O)N21)C(=O)NCCc1ccccc1` (stereo not given in full), the AC40 is 24.7 µM.

As to `O=Nc1c(-c2ccccc2)[nH]n(-c2ccccc2)c1=O`, the AC40 is 20.7 µM. As for `O=C(NC1CCCCC1)C1CCCN1S(=O)(=O)c1cccc2nsnc12` (stereo not given), the AC40 was > 26 µM (inactive).

For `CCOc1ccccc1CNCCN1CCOCC1`, the AC40 was > 26 µM (inactive).

`O=C(O)C(Cc1ccccc1)N1C(=O)c2c(Cl)c(Cl)c(Cl)c(Cl)c2C1=O` (stereo not given): the AC40 is > 12 µM (inactive). As to `CC1(c2ccc([N+](=O)[O-])cc2)NC(=O)N(CC(=O)c2ccc3c(c2)OCO3)C1=O` (stereo not given), the AC40 is > 26 µM (inactive). As to `N#Cc1ccc(Cl)cc1NC(=O)CNCc1cccs1`, the AC40 was > 26 µM (inactive). As to `NC(=O)CCN1CCN(CCOC2Cc3cc(Cl)ccc3Sc3ccccc32)CC1` (stereo not given), the AC40 was > 26 µM (inactive). Regarding `COc1ccc(S(=O)(=O)N2CCC(C(=O)NCc3cccnc3)CC2)cc1C`, the AC40 was > 26 µM (inactive).

Turning to `Cc1ccc(-n2cc(CNCCN3CCOC3=O)c(-c3cccc(C)c3)n2)cc1`, the AC40 is 17.4 µM. With `O=C1C2CC=CCC2C(=O)N1c1ccc(NCCc2ccccc2)c([N+](=O)[O-])c1` (stereo not given), the AC40 is 3.31 µM. On to `O=C(/C=C/Sc1ccccc1)c1ccc(Cl)cc1`, for which the AC40 was 4.33 µM. As to `O=C(NCc1ccco1)C1CC(O)CN1C(=O)Nc1ccccc1` (stereo not given), the AC40 is > 26 µM (inactive). For the compound `O=c1[nH]n(CC2COC3(CCCCC3)O2)c(=O)c2ccccc12` (stereo not given), the AC40 is 5.22 µM. On to `O=C(c1ccccc1Br)N1CCN(c2ccccc2)CC1`, for which the AC40 is > 26 µM (inactive). With `Cc1nonc1OCCNCCNc1ccc([N+](=O)[O-])cc1Cl`, the AC40 is > 26 µM (inactive). `O=C1c2ccccc2C(=O)N1CC(O)COc1ccc(Br)cc1` (stereo not given): the AC40 was 13.7 µM. For the compound `CN(CCC1CCCCO1)C(=O)CCc1nnc(CCCCc2ccccc2)o1` (stereo not given), the AC40 is 5.66 µM. Consider `CCOc1ccc(-n2cc(C(=O)N3CCC(C)CC3)c3cc(OC)c(OC)cc3c2=O)cc1`, for which the AC40 is 25 µM. For `COc1cccc(-c2nnc(SCc3nc4ccccc4[nH]3)n2N)c1`, the AC40 is 18.6 µM. For `Cc1ccc(NC2=NC3(CCCC3)N=C(N)N2)c(C)c1`, the AC40 is > 26 µM (inactive). Take `O=C1NC(=O)[C@]2(Cc3ccccc3N3CCN(c4ccccc4)CC32)C(=O)N1Cc1ccccc1` (stereo not given in full): the AC40 was 2.51 µM.

As to `CCCCC(=O)OCC(=O)c1[nH]c(C)c(C(=O)OCC)c1C`, the AC40 was 7.5 µM.

Turning to `CCCCc1cc(O)c(CCCC)c(O)c1`, the AC40 is 4.58 µM. `CCOC(=O)Nc1ccc(C(=O)Oc2ccccc2)c(O)c1`: the AC40 is 14.2 µM. Consider `O=C(COC(=O)C1CSC2(c3ccc(F)cc3)CCC(=O)N12)NC(=O)NC1CCCC1` (stereo not given), for which the AC40 was > 26 µM (inactive). Turning to `Cc1ccccc1N1CCN(S(=O)(=O)Cc2ccccc2)CC1`, the AC40 was > 26 µM (inactive). On to `COc1ccc(C(=O)Cn2c(C(=O)/C=C/c3ccccc3)nc3ccccc32)cc1`, for which the AC40 is 2.39 µM. The figure for `COc1cc(OC)c(OC)cc1CN(C)CCc1ccccn1` is 25.8 µM; for `CC1(c2cccs2)CC(c2cccs2)=C(C#N)C(=O)N1` (stereo not given) it is > 26 µM (inactive); for `S=c1sc2c(Cl)ncnc2n1-c1ccccc1` it is > 12 µM (inactive). Consider `CCc1cc(C(c2ccccc2OC)N2CCOCC2)c(NC(=O)c2ccccc2)s1` (stereo not given), for which the AC40 is > 26 µM (inactive). Consider `COc1ccc(N2CCN(c3ncnc4c3cnn4-c3ccc(C)cc3C)CC2)cc1`, for which the AC40 was > 26 µM (inactive). For `O=C1c2ccccc2C(=O)N1CCC(=O)N1CCCc2ccccc21`, the AC40 is > 26 µM (inactive). With `CC1CCN(c2ccc(C=O)o2)CC1`, the AC40 was > 26 µM (inactive). For `Cn1c(Cl)cnc1C1CC(=O)c2cc(Cl)ccc2O1` (stereo not given), the AC40 was > 26 µM (inactive). As for `O[C@@H]1C2CCCC1[C@]1(O)CCCCC1C2` (stereo not given in full), the AC40 is > 26 µM (inactive).

`O=C(CCCC1=NS(=O)(=O)c2ccccc2N1)N1CCN(c2ccccc2)CC1`: the AC40 is > 26 µM (inactive).

As for `O=C(CSc1nc2ccccc2c2nc3ccccc3n12)NCc1ccco1`, the AC40 was 10.1 µM. As for `O=C(NCc1cccc(F)c1)c1noc2c1CCCC2`, the AC40 was 6.03 µM. Regarding `COc1ccc(C2(C)NC(=O)N(CC3CCCCC3)C2=O)cc1` (stereo not given), the AC40 was > 26 µM (inactive). Take `O=C(CC1(O)C(=O)Nc2ccc(Br)cc21)c1ccc2c(c1)OCO2` (stereo not given): the AC40 was > 26 µM (inactive).

In the case of `C(=N\N1CCN(Cc2cccc3ccccc23)CC1)/c1cccnc1`, the AC40 was > 26 µM (inactive). Regarding `CCc1[nH]nc2c1C1(CCN(C(=O)OCc3ccccc3)CC1)C(C#N)=C(N)O2`, the AC40 is > 26 µM (inactive).

For `Nn1cnnc1N/N=C/c1cc([N+](=O)[O-])c(Cl)cc1Cl`, the AC40 was > 26 µM (inactive). With `CC(CC#CCN1CCOCC1)OCCC#N` (stereo not given), the AC40 is > 26 µM (inactive). On to `CN(Cc1ccccc1)C(=O)CCC1CCN(C(=O)CC2=CCCCC2)CC1`, for which the AC40 is > 26 µM (inactive). Turning to `O=[N+]([O-])c1ccc(Sc2ccccc2)nc1`, the AC40 is > 26 µM (inactive). With `O=c1[nH]c2c(s1)C=Nc1ccccc1N2`, the AC40 was 4.98 µM. The figure for `COc1ccc(C2/C=C\CN(S(=O)(=O)/C=C/c3ccccc3)[C@H](Cc3ccccc3)C(=O)N2Cc2ccc(F)cc2)cc1` (stereo not given in full) is > 26 µM (inactive); for `CCOC(=O)CSc1cc(-c2ccccc2)nc2ncnn12` it is > 26 µM (inactive). As to `Nc1ncnc2c1CCC2`, the AC40 was > 26 µM (inactive). `O=C(Cc1cccs1)NCc1ccccc1Br`: the AC40 is 1.77 µM. In the case of `S=C(Nc1ccc(Cl)cc1)Nc1cccc2cnccc12`, the AC40 was > 26 µM (inactive). As to `CC(=NCc1ccco1)C1=C(O)c2ccccc2C1=O`, the AC40 is 16.6 µM. For the compound `CC(=O)c1ccc(NC(=S)N2C(C)CCCC2C)cc1` (stereo not given), the AC40 is 20.8 µM. With `CSc1ccc(Cl)c(C(=O)OCC(=O)N(C)CCC#N)c1`, the AC40 is > 26 µM (inactive). Regarding `Cc1ccc(C(=O)NC(=C(Cl)Cl)S(=O)(=O)c2ccc(Cl)cc2)cc1`, the AC40 was 8.29 µM. Consider `NC1=NC(=O)/C(=C/c2cn(Cc3ccccc3)c3ccccc23)S1`, for which the AC40 is 9.09 µM. As for `C=CCN(C(=O)CCC(=O)Nc1cc(C)on1)C(C(=O)NC(C)(C)C)c1cccc(OC)c1OC` (stereo not given), the AC40 is > 26 µM (inactive). In the case of `O=C(c1ccc2c(=O)n(C3CCCC3)c(=S)[nH]c2c1)N1CCc2ccccc21` it was > 26 µM (inactive); in that of `[O-]/[N+](=C\c1ccc(OC(F)F)cc1)c1ccccc1`, > 26 µM (inactive). In the case of `CCc1cccc(NC(=O)c2cccc(S(=O)(=O)N3CCN(C)CC3)c2)c1` it was > 26 µM (inactive). For the compound `Cc1cc(-c2nc3ncccc3o2)ccc1NC(=S)NC(=O)C(C)C`, the AC40 is 7.32 µM. For the compound `CC(C)OC(=O)c1ccc(COc2ccc3ccc(=O)oc3c2)o1`, the AC40 is 3.16 µM. As to `Cn1ncc(Br)c1C(=O)N1CCOCC1`, the AC40 was > 26 µM (inactive). With `Cc1sc2nc(C)n(/N=C/c3ccc(O)cc3O)c(=O)c2c1C`, the AC40 was > 26 µM (inactive). `CCCCN(CCCNC(=O)C1CCN(S(=O)(=O)CC)CC1)c1ccccc1`: the AC40 is 10.4 µM. In the case of `Cc1ccc(-c2csc(NC(=O)c3cccc([N+](=O)[O-])c3)n2)cc1`, the AC40 was > 26 µM (inactive). Take `COc1cc(C2Nc3ccc4ncccc4c3C3=C2C(=O)CCC3)cc(OC)c1OC` (stereo not given): the AC40 was 5.44 µM. In the case of `COc1ccc(NC(=S)Nc2ccccc2SC)c(OC)c1`, the AC40 is 24.2 µM. For `N#Cc1ccccc1COC(=O)c1cc(=O)c2ccccc2o1`, the AC40 is 26 µM.

`CCCN(CC(=O)Nc1ccc(Cl)cc1Cl)C(=O)/C=C/c1ccco1`: the AC40 was 13 µM.
